In ChEMBL document CHEMBL6078668, “Synthesis and biological evaluation of lappaconitine analogues as potential anti-neuroinflammatory agents by side chain modification and scaffold hopping strategy” (Bioorg Med Chem, 2025):

Columns and labels:
[1] = Cytotoxicity against C57BL/6 mouse BV-2 cells assessed as survival rate at 30 uM incubated for 24 hrs by MTT assay relative to control; assay type: toxicity, cell-based; settings: read-out: Survival
BV-2 = assay: Anti-neuroinflammatory activity against LPS-stimulated C57BL/6 mouse BV-2 cells assessed as inhibition of NO release at 30 uM preincubated with compound for 4 hrs followed by LPS addition and measured after 24 hrs by Griess reagent based assay relative to control; assay type: functional; settings: C57BL/6, BV-2, time 28 hrs

Row | Compound | viability at 24 h, 30 µM [1] [%] | inhibition at 30 µM (BV-2) [%]
1 | COC(=O)c1ccccc1NS(=O)(=O)c1cccc(F)c1 | 106 | 38.5
2 | CCN1C[C@]2(OC(=O)c3ccccc3NC(=O)S(=O)(=O)c3ccc(Cl)cc3)CC[C@H](OC)[C@]34C1[C@@H](C[C@H]23)[C@@]1(O)C[C@H](OC)[C@H]2C[C@@H]4[C@]1(O)[C@H]2OC | 100 | 39.2
3 | CCN1C[C@]2(OC(=O)c3ccccc3NC(=O)c3ccc(OC)c(OC)c3)CC[C@H](OC)[C@]34C1[C@@H](C[C@H]23)[C@@]1(O)C[C@H](OC)[C@H]2C[C@@H]4[C@]1(O)[C@H]2OC | 102 | 14.3
4 | CCN1C[C@]2(OC(=O)c3ccccc3NC(=O)S(=O)(=O)c3ccccc3Br)CC[C@H](OC)[C@]34C1[C@@H](C[C@H]23)[C@@]1(O)C[C@H](OC)[C@H]2C[C@@H]4[C@]1(O)[C@H]2OC | 92.6 | 7.3
5 | CCN1C[C@]2(OC(=O)c3ccccc3NC(=O)c3ccc(C#N)cc3)CC[C@H](OC)[C@]34C1[C@@H](C[C@H]23)[C@@]1(O)C[C@H](OC)[C@H]2C[C@@H]4[C@]1(O)[C@H]2OC | 99.5 | 6.6
6 | CCN1C[C@]2(OC(=O)c3ccccc3NC(=O)S(=O)(=O)c3ccc(F)c(Cl)c3)CC[C@H](OC)[C@]34C1[C@@H](C[C@H]23)[C@@]1(O)C[C@H](OC)[C@H]2C[C@@H]4[C@]1(O)[C@H]2OC | 93.6 | 26.2
7 | CCN1C[C@]2(OC(=O)c3ccccc3NC(=O)S(=O)(=O)c3cc(Cl)ccc3F)CC[C@H](OC)[C@]34C1[C@@H](C[C@H]23)[C@@]1(O)C[C@H](OC)[C@H]2C[C@@H]4[C@]1(O)[C@H]2OC | 95.1 | 36.1
8 | CCN1C[C@]2(OC(=O)c3ccccc3NC(=O)c3ccc(Br)cc3)CC[C@H](OC)[C@]34C1[C@@H](C[C@H]23)[C@@]1(O)C[C@H](OC)[C@H]2C[C@@H]4[C@]1(O)[C@H]2OC | 102 | 21.3
9 | CCN1C[C@]2(COC(=O)c3ccccc3NS(=O)(=O)c3cccc(F)c3)CC[C@H](OC)[C@]34C1[C@@H](C[C@H]23)[C@@]1(O)C[C@H](OC)[C@H]2C[C@@H]4[C@]1(O)[C@H]2O | 106 | 17.9
10 | CCN1C[C@]2(OC(=O)c3ccccc3NC(=O)c3cccc(OC)c3)CC[C@H](OC)[C@]34C1[C@@H](C[C@H]23)[C@@]1(O)C[C@H](OC)[C@H]2C[C@@H]4[C@]1(O)[C@H]2OC | 107 | 44.9
11 | CCN1C[C@]2(OC(=O)c3ccccc3NC(=O)S(=O)(=O)c3ccc4ccccc4c3)CC[C@H](OC)[C@]34C1[C@@H](C[C@H]23)[C@@]1(O)C[C@H](OC)[C@H]2C[C@@H]4[C@]1(O)[C@H]2OC | 100 | 53.1
12 | CCN1C[C@]2(OC(=O)c3ccccc3NC(=O)C3CCCCC3)CC[C@H](OC)[C@]34C1[C@@H](C[C@H]23)[C@@]1(O)C[C@H](OC)[C@H]2C[C@@H]4[C@]1(O)[C@H]2OC | 105 | 44.5
13 | CCN1C[C@]2(OC(=O)c3ccccc3NC(=O)S(=O)(=O)c3ccc(Br)cc3)CC[C@H](OC)[C@]34C1[C@@H](C[C@H]23)[C@@]1(O)C[C@H](OC)[C@H]2C[C@@H]4[C@]1(O)[C@H]2OC | 109 | 40.8
14 | CCO/C=C/C(=O)Nc1ccccc1C(=O)O[C@@]12CC[C@H](OC)[C@]34C([C@@H](C[C@H]13)[C@@]1(O)C[C@H](OC)[C@H]3C[C@@H]4[C@]1(O)[C@H]3OC)N(CC)C2 | 110 | 28.7
15 | COC(=O)c1ccccc1NS(=O)(=O)c1ccc(Br)s1 | 99.1 | 43.8
16 | CCN1C[C@]2(OC(=O)c3ccccc3NC(=O)S(=O)(=O)CCCCl)CC[C@H](OC)[C@]34C1[C@@H](C[C@H]23)[C@@]1(O)C[C@H](OC)[C@H]2C[C@@H]4[C@]1(O)[C@H]2OC | 104 | 23.5
17 | CCN1C[C@]2(OC(=O)c3ccccc3NC(=O)S(=O)(=O)c3csc4ccccc34)CC[C@H](OC)[C@]34C1[C@@H](C[C@H]23)[C@@]1(O)C[C@H](OC)[C@H]2C[C@@H]4[C@]1(O)[C@H]2OC | 100 | 30.7
18 | CCc1ccc(C(=O)Nc2ccccc2C(=O)OC)cc1 | 103 | 37.1
19 | CCN1C[C@]2(OC(=O)c3ccccc3NC(=O)S(=O)(=O)c3ccccc3C(F)(F)F)CC[C@H](OC)[C@]34C1[C@@H](C[C@H]23)[C@@]1(O)C[C@H](OC)[C@H]2C[C@@H]4[C@]1(O)[C@H]2OC | 107 | 13.7
20 | CCCC(C)C(=O)Nc1ccccc1C(=O)O[C@@]12CC[C@H](OC)[C@]34C([C@@H](C[C@H]13)[C@@]1(O)C[C@H](OC)[C@H]3C[C@@H]4[C@]1(O)[C@H]3OC)N(CC)C2 (stereo partly drawn) | 108 | 57.8

Row | Compound | viability at 24 h, 30 µM [1] [%] | inhibition at 30 µM (BV-2) [%]
21 | CCCCCCC(=O)Nc1ccccc1C(=O)O[C@@]12CC[C@H](OC)[C@]34C([C@@H](C[C@H]13)[C@@]1(O)C[C@H](OC)[C@H]3C[C@@H]4[C@]1(O)[C@H]3OC)N(CC)C2 | 100 | 30
22 | CCN1C[C@]2(OC(=O)c3ccccc3NC(=O)S(=O)(=O)c3ccc(OC)cc3OC)CC[C@H](OC)[C@]34C1[C@@H](C[C@H]23)[C@@]1(O)C[C@H](OC)[C@H]2C[C@@H]4[C@]1(O)[C@H]2OC | 99.7 | 20.9
23 | O=C(O)c1ccccc1NS(=O)(=O)c1ccc(Br)s1 | 96.5 | 18.4
24 | CCN1C[C@]2(OC(=O)c3ccccc3NC(=O)S(=O)(=O)c3cccs3)CC[C@H](OC)[C@]34C1[C@@H](C[C@H]23)[C@@]1(O)C[C@H](OC)[C@H]2C[C@@H]4[C@]1(O)[C@H]2OC | 105 | 55.9
25 | O=C(O)c1ccccc1NS(=O)(=O)c1cccc(F)c1 | 100 | 10.8
26 | CCN1C[C@]2(OC(=O)c3ccccc3NC(=O)S(=O)(=O)c3cc(Br)c(Cl)s3)CC[C@H](OC)[C@]34C1[C@@H](C[C@H]23)[C@@]1(O)C[C@H](OC)[C@H]2C[C@@H]4[C@]1(O)[C@H]2OC | 94.3 | 29.4
27 | CCN1C[C@]2(OC(=O)c3ccccc3NC(=O)S(=O)(=O)c3ccc(C)c(Cl)c3)CC[C@H](OC)[C@]34C1[C@@H](C[C@H]23)[C@@]1(O)C[C@H](OC)[C@H]2C[C@@H]4[C@]1(O)[C@H]2OC | 94.8 | 25.2
28 | CCN1C[C@]2(OC(=O)c3ccccc3NC(=O)S(=O)(=O)c3cccc(Br)c3)CC[C@H](OC)[C@]34C1[C@@H](C[C@H]23)[C@@]1(O)C[C@H](OC)[C@H]2C[C@@H]4[C@]1(O)[C@H]2OC | 102 | 10
29 | CCN1C[C@]2(OC(=O)c3ccccc3NC(=O)c3ccccc3)CC[C@H](OC)[C@]34C1[C@@H](C[C@H]23)[C@@]1(O)C[C@H](OC)[C@H]2C[C@@H]4[C@]1(O)[C@H]2OC | 107 | 36
30 | CCN1C[C@]2(OC(=O)c3ccccc3NC(=O)C3CCOC3)CC[C@H](OC)[C@]34C1[C@@H](C[C@H]23)[C@@]1(O)C[C@H](OC)[C@H]2C[C@@H]4[C@]1(O)[C@H]2OC (stereo partly drawn) | 109 | 32.4
31 | CCN1C[C@]2(OC(=O)c3ccccc3NC(C)=O)CC[C@H](OC)[C@]34C1[C@@H](C[C@H]23)[C@@]1(O)C[C@H](OC)[C@H]2C[C@@H]4[C@]1(O)[C@H]2OC | 98.2 | 25.1
32 | C=C(C)C(=O)Nc1ccccc1C(=O)O[C@@]12CC[C@H](OC)[C@]34C([C@@H](C[C@H]13)[C@@]1(O)C[C@H](OC)[C@H]3C[C@@H]4[C@]1(O)[C@H]3OC)N(CC)C2 | 94.2 | 12.9
33 | CCN1C[C@]2(OC(=O)c3ccccc3NC(=O)c3ccc(S(C)(=O)=O)cc3)CC[C@H](OC)[C@]34C1[C@@H](C[C@H]23)[C@@]1(O)C[C@H](OC)[C@H]2C[C@@H]4[C@]1(O)[C@H]2OC | 103 | 20
34 | CCN1C[C@]2(OC(=O)c3ccccc3NC(=O)S(=O)(=O)c3ccc(NC(C)=O)cc3)CC[C@H](OC)[C@]34C1[C@@H](C[C@H]23)[C@@]1(O)C[C@H](OC)[C@H]2C[C@@H]4[C@]1(O)[C@H]2OC | 104 | 10.4
35 | CCN1C[C@]2(OC(=O)c3ccccc3NC(=O)S(=O)(=O)c3ccc(OC)c(OC)c3)CC[C@H](OC)[C@]34C1[C@@H](C[C@H]23)[C@@]1(O)C[C@H](OC)[C@H]2C[C@@H]4[C@]1(O)[C@H]2OC | 105 | 19.4
36 | CCCCOC(=O)c1ccccc1NC(=O)c1ccc(CC)cc1 | 103 | 30.4
37 | CCN1C[C@]2(OC(=O)c3ccccc3NC(=O)S(=O)(=O)c3ccc(F)cc3C)CC[C@H](OC)[C@]34C1[C@@H](C[C@H]23)[C@@]1(O)C[C@H](OC)[C@H]2C[C@@H]4[C@]1(O)[C@H]2OC | 92.7 | 32.2
38 | CCN1C[C@]2(OC(=O)c3ccccc3NC(=O)c3cccc(C)c3)CC[C@H](OC)[C@]34C1[C@@H](C[C@H]23)[C@@]1(O)C[C@H](OC)[C@H]2C[C@@H]4[C@]1(O)[C@H]2OC | 112 | 15.6
39 | CCN1C[C@]2(OC(=O)c3ccccc3NC(=O)C3CCOCC3)CC[C@H](OC)[C@]34C1[C@@H](C[C@H]23)[C@@]1(O)C[C@H](OC)[C@H]2C[C@@H]4[C@]1(O)[C@H]2OC | 103 | 36.3
